In patent publication US8034954B2, “Calcium channel antagonists” (Icagen, Inc., priority 2005, dated 2011):

System: T-type calcium channels
Assay: T-type calcium channel inhibitory activity (Fluo-4 FLIPR fluorescence and whole cell patch clamp)
Type: cell-based, mammalian
Settings: cells natively expressing T-type channels or HEK-293 cells expressing recombinant T-type calcium channels; fluorometric and electrophysiological methods, not distinguished in the table; read-out: Activity (inhibition of T-type calcium channels, IC50)
Description: T-type calcium channel inhibitory activity of some compounds of the invention was evaluated using both fluorometric as well as electrophysiological measurement methodologies, which are known to those skilled in the art. Fluorescence measurement of changes in intracellular calcium due to entry of calcium through T-type calcium channels was assessed using calcium sensitive fluorescent dyes Fluo-4 and Fluo-3. In brief, cells natively expressing T-type channels or HEK-293 cells transiently or stably expressing recombinant mammalian T-type calcium channels grown in 96-well tissue culture plates in DMEM/High glucose, Hyclone, Fetal Bovine Serum (10%), and 2 mM sodium pyruvate 2 mM (and for cells lines recombinantly expressing T-type calcium channels, G418@400 mg/liter) were loaded with 4 μM Fluo-4 made up in Earls Balanced Salt Solution (EBSS). After incubation for 30 minutes at room temperature, cells were washed with low calcium (0.5 mM) EBSS to remove extracellular Fluo-4. Baseline fluorescence was measured in a FLIPR (FLuorescence Image Plate Reader) (Molecular Devices Inc) after applying test compounds at desired concentration for 5-10 minutes. The effect of test compound on calcium entry was assessed by monitoring changes in Fluo-4 fluorescence following an elevation of extracellular calcium concentration from 0.5 mM to 5 mM. […] Native cells natively expressing T-type channels or HEK-293 cells transiently or stably expressing recombinant mammalian T-type calcium channels were grown in DMEM/High glucose, Hyclone, Fetal Bovine Serum (10%), 2 mM sodium pyruvate 2 mM (and for cells lines recombinantly expressing T-type calcium channels, G418@400 mg/liter) on glass coverslips in 35 mm tissue culture dishes. […] Electrical currents were measured using the whole cell configuration of the patch clamp technique (Axopatch 200B, Axon Instruments (Molecular Devices) (see Hamill et al (1981) PFugers Arch, 1981 391:85-100) using 2-2.5 MOhm resistance glass pipettes filled with 135 CsF, 5 CsCl, 5 NaCl, 5 EGTA, 10 HEPES, pH 7.3 with CsOH, Osmolarity ˜288 mOsm. Test compound effects were typically assessed under conditions in which approximately half of the available channels were inactivated either by an 8 second conditioning depolarization from a holding potential of −100 mV to a potential ranging from −70 mV to −60 mV or by continually holding the membrane potential at −70 mV. Test compounds were assessed for their ability to reduce the amplitude of the inward T-type calcium current elicited by a 100 ms step depolarization −20 or −30 mV.

| IC50 | Compound |
| --- | --- |
| 0.001 to 1 µM | CCOc1cccc(S(=O)(=O)c2cnc(Nc3cc(NCC[C@H]4CCNC4)nc(C)n3)s2)c1 [Example 10, N-[5-(3-ethoxy-benzenesulfonyl)-thiazol-2-yl]-2-methyl-N′-(R)-(pyrrolidin-3-yl-ethyl)-pyrimidine-4,6-diamine] |
| 0.001 to 1 µM | CCOc1cccc(S(=O)(=O)c2cnc(Nc3cc(OC[C@H]4CCCN4)nc(C)n3)s2)c1 [Example 21, N-[5-(3-ethoxy-benzenesulfonyl)-thiazol-2-yl]-[2-methyl-((6R)-1-pyrrolidin-2-yl-methoxy)pyrimidin-4-yl]-amine] |
| 0.001 to 1 µM | CCOc1cccc(S(=O)(=O)c2cnc(Nc3cc(OCCN(C)C)nc(C(F)(F)F)n3)s2)c1 [Example 28, [6-(2-Dimethylamino-ethoxy)-2-trifluormethyl-pyrimidin-4-yl]-[5-(3-Ethoxy-benzenesulfonyl)-thiazol-2-yl]-amine] |
| 0.001 to 1 µM | [5-(3-Ethoxy-benzenesulfonyl)-thiazol-2-yl]-[6-(3-methylamino)propyl)-2-methyl-pyrimidin-4-yl]-amine [Example 35] |
